According to patent US11464780B2, “Pyrazolopyrimidine derivative and use thereof” (Simcere Pharmaceutical Co. Ltd., priority 2018, dated 2022):
Where two headings read alike, the source gives them in different places. One block for each compound: values may come before it.

Columns and labels:
Ros1 = target: T1, Ros1 (Homo sapiens, UniProt P08922); experiment: Kinase inhibitory activity (33P-ATP filter binding, Reaction Biology Corp.); format: biochemical; conditions: read-out: The half maximal inhibitory concentration IC50 on the kinases, Ros1
T1 construct: purchased Reaction Biology Corp. (contract assay)
Description: (§1) The mixture was incubated at room temperature for 20 minutes. To the reaction mixture was added a certain concentration of ^33P-ATP to initiate the reaction, and then the mixture was incubated at room temperature for 120 minutes. The radioactivities of the reactants were determined by the method of filter binding. The final kinase activity was expressed as the ratio of the remaining kinase activity in the test sample to the kinase activity in the DMSO control group. The dose-effect curve was fitted by GraphPad software and the IC50 was calculated.

TrkA = target: T2, TrkA (Homo sapiens, UniProt P04629); experiment: as above; format: biochemical; conditions: read-out: The half maximal inhibitory concentration IC50 on the kinases, TrkA
T2 construct: purchased Reaction Biology Corp. (contract assay)
Description: as §1

TrkA-G595R = target: T3, TrkA-G595R (Homo sapiens, UniProt P04629, G595R); experiment: as above; format: biochemical; conditions: read-out: The half maximal inhibitory concentration IC50 on the kinases, TrkA-G595R
T3 construct: purchased Reaction Biology Corp. (contract assay)
Description: as §1

TrkA-G667C = target: T4, TrkA-G667C (Homo sapiens, UniProt P04629, G667C); experiment: as above; format: biochemical; conditions: read-out: The half maximal inhibitory concentration IC50 on the kinases, TrkA-G667C
T4 construct: purchased Reaction Biology Corp. (contract assay)
Description: as §1

TrkC = target: T5, TrkC (Homo sapiens, UniProt Q16288); experiment: as above; format: biochemical; conditions: read-out: The half maximal inhibitory concentration IC50 on the kinases, TrkC
T5 construct: purchased Reaction Biology Corp. (contract assay)
Description: as §1

ALK = target: T6, ALK (Homo sapiens, UniProt Q9UM73); experiment: as above; format: biochemical; conditions: read-out: The half maximal inhibitory concentration IC50 on the kinases, ALK
T6 construct: purchased Reaction Biology Corp. (contract assay)
Description: The inhibitory activities of the compounds on TrkA, TrkC, ALK, Ros1 and other kinases were determined by Reaction Biology Corp. To reaction buffer (20 mM Hepes (pH 7.5), 10 mM MgCl2, 1 mM EGTA, 0.02% Brij35, 0.02 mg/mL BSA, 0.1 mM Na3VO4, 2 mM DTT, 1% DMSO) were sequentially added a certain concentration of substrate, coenzyme factor, kinase and test compound (10 concentrations, 3-fold serial dilutions, DMSO at a final concentration of […]), and the mixture was mixed evenly. The mixture was incubated at room temperature for 20 minutes. To the reaction mixture was added a certain concentration of ^33P-ATP to initiate the reaction, and then the mixture was incubated at room temperature for 120 minutes. The radioactivities of the reactants were determined by the method of filter binding. The final kinase activity was expressed as the ratio of the remaining kinase activity in the test sample to the kinase activity in the DMSO control group. The dose-effect curve was fitted by GraphPad software and the IC50 was calculated.

[1] = target: T7, Ba/F3 LMNA-NTRK1-WT stably transfected cell line (Homo sapiens, UniProt P04629); experiment: Cell proliferation inhibition (CellTiter-Glo); format: cell-based; conditions: 72 hours, read-out: The half maximal inhibitory concentration IC50 against cells, Ba/F3 LMNA-NTRK1-WT
T7 construct: fused on or other part: P02545 (Prelamin-A/C)
Description: Adenosine Tri-Phosphate (ATP) is an energy carrier shared by various life activities in nature, and is the smallest unit of energy storage and transfer. The CellTiter-Glo™ cell viability detection kit uses luciferase as the detection substance, and luciferase requires the participation of ATP during the process of luminescence. CellTiter-Glo™ reagent is added to cell culture medium, and the luminescent intensity is measured. The luminescent signal is directly proportional to the amount of ATP in the system, and ATP is positively related to the number of living cells. Therefore, by using the CellTiter-Glo kit to detect ATP content, cell proliferation can be detected. In this assay, the cell line is Ba/F3 LMNA-NTRK1-WT stably transfected cell line, with 5000 cells/well.
IC50 Determination Process:
1. Cell Culture and Inoculation
a) the cells in the logarithmic growth phase were harvested, and counted with a platelet counter. Trypan blue exclusion method was used to detect cell viability to ensure the cell viability was no less than 90%.
b) the cell concentration was adjusted; 90 μL of cell suspension was added respectively into a 96-well plate.
c) the cells in the 96-well plates was cultured under conditions of 37° C., 5% CO2 and 95% humidity overnight.
2. Drug Dilution and Administration
a) 10-fold drug solutions were prepared, the highest concentration was 10 μM, 9 concentrations, 3-fold diluted (refer to Appendix I). 10 μL of each drug solution was added to each well of the 96-well plate seeded with the cells in triplicate.
b) the cells in the 96-well plate added with the drug were cultured under conditions of 37° C., 5% CO2 and 95% humidity for 72 hours, and then CTG (cell proliferation) was performed.
a) CellTiter-Glo™ reagent was thawed, and the cell plate was equilibrated at room temperature for 30 minutes.
b) CellTiter-Glo™ reagent of a same volume was added to each well;
c) the cell plate was shaken on an orbital shaker for 5 minutes to lyse the cells.
d) the cell plate was placed at room temperature for 20 minutes to stabilize the luminescent signal.
e) the luminescent intensity was read.
GraphPad Prism 5.0 software was used to analyze the data, nonlinear S-curve regression was used to fit the data to obtain dose-effect curve, and IC50 value was calculated therefrom.

[2] = target: T8, Ba/F3 LMNA-NTRK1-G595R stably transfected cell line (Homo sapiens, UniProt P04629, G595R, cells depend on it); experiment: Cell proliferation inhibition (CellTiter-Glo); format: cell-based; conditions: 72 hours, read-out: The half maximal inhibitory concentration IC50 against cells, Ba/F3 LMNA-NTRK1-G595R
T8 construct: fused on or other part: P02545 (Prelamin-A/C)

[3] = target: T9, BaF3 ETV6-NTRK3-G623R stably transfected cell line (Homo sapiens, UniProt Q16288, G623R, cells depend on it); experiment: Cell proliferation inhibition (CellTiter-Glo); format: cell-based; conditions: 72 hours, read-out: The half maximal inhibitory concentration IC50 against cells, BaF3 ETV6-NTRK3-G623R
T9 construct: fused on or other part: P41212 (Transcription factor ETV6)

[4] = In vivo pharmacokinetic test in mice; set-up: species or system male CD-1 mice; conditions: for Vd: read-out: Apparent volume of distribution Vd; for AUC(0-t): read-out: Area under the curve AUC0-last; for half-life: read-out: Half life T1/2 (converted); for bioavailability: read-out: Bioavailability F %; for Cmax: read-out: Peak concentration Cmax; for Tmax: read-out: Time of peak concentration Tmax
Description: Experimental object: male CD-1 mice aged 7-9 weeks were used as the experimental animals, the LC/MS/MS method was used to determine the drug concentrations in plasma at different time points after single intravenous (IV) and intragastric (PO) administration of the compounds, in vivo pharmacokinetic behaviors of the compounds of the present disclosure in mice were studied, and pharmacokinetic characteristics thereof were evaluated. Drug preparation: The compounds were prepared into clear solutions with 5% DMSO+10% solutol+85% water as solvent for administration in IV (intravenous) group and PO (intragastric). The dose of the compounds: IV dose of 3 mg/kg, and PO dose of […].

[5] = In vivo cassette pharmacokinetic test in mice; set-up: species or system male CD-1 mice; conditions: cassette, mice; for Apparent clearance Cl: IV @ 1 mpk
Description: The dose of the compounds: […] PO dose of 3 mg/kg, and administration volume of 3 mL/kg.

[6] = system: human colon cancer cell line KM12 subcutaneous xenograft tumor; experiment: In vivo efficacy, subcutaneous xenograft tumor of human colon cancer KM12; set-up: species or system BALB/c mouse; conditions: PO
Description: Experimental object: evaluation of the in vivo efficacy of test drugs such as WX002A on subcutaneous xenograft tumor of human colon cancer cell line KM12 cell in BALB/c mouse model.
Drug preparation: The compounds were all prepared into clear solutions with 5% DMSO+10% solutol+85% water as solvent for administration in the PO (intragastric) group.
Tumor measurement: the tumor diameters were measured with a vernier caliper twice a week. The calculation formula of tumor volume is: V=0.5×a×b^2, wherein a and b represent the long diameter and short diameter of the tumor, respectively. The anti-tumor efficacy of the compounds is evaluated by TGI (%). TGI (%) reflects tumor growth inhibition rate.
Statistical analysis: The statistical analysis was based on the relative tumor volume and tumor weight at the end of the experiment using SPSS software. One-way ANOVA was used to analyze the comparison between multiple groups. […] P<0.05 was considered to indicate significant difference.

[7] = male, CD-1, mouse, plasma, IV dose of 3 mg/kg
[8] = male, CD-1, mouse, plasma, PO dose of 10 mL/kg vs IV 3 mg/kg
[9] = male, CD-1, mouse, plasma, PO dose of 10 mL/kg

T1 sequence (P08922 28-2347): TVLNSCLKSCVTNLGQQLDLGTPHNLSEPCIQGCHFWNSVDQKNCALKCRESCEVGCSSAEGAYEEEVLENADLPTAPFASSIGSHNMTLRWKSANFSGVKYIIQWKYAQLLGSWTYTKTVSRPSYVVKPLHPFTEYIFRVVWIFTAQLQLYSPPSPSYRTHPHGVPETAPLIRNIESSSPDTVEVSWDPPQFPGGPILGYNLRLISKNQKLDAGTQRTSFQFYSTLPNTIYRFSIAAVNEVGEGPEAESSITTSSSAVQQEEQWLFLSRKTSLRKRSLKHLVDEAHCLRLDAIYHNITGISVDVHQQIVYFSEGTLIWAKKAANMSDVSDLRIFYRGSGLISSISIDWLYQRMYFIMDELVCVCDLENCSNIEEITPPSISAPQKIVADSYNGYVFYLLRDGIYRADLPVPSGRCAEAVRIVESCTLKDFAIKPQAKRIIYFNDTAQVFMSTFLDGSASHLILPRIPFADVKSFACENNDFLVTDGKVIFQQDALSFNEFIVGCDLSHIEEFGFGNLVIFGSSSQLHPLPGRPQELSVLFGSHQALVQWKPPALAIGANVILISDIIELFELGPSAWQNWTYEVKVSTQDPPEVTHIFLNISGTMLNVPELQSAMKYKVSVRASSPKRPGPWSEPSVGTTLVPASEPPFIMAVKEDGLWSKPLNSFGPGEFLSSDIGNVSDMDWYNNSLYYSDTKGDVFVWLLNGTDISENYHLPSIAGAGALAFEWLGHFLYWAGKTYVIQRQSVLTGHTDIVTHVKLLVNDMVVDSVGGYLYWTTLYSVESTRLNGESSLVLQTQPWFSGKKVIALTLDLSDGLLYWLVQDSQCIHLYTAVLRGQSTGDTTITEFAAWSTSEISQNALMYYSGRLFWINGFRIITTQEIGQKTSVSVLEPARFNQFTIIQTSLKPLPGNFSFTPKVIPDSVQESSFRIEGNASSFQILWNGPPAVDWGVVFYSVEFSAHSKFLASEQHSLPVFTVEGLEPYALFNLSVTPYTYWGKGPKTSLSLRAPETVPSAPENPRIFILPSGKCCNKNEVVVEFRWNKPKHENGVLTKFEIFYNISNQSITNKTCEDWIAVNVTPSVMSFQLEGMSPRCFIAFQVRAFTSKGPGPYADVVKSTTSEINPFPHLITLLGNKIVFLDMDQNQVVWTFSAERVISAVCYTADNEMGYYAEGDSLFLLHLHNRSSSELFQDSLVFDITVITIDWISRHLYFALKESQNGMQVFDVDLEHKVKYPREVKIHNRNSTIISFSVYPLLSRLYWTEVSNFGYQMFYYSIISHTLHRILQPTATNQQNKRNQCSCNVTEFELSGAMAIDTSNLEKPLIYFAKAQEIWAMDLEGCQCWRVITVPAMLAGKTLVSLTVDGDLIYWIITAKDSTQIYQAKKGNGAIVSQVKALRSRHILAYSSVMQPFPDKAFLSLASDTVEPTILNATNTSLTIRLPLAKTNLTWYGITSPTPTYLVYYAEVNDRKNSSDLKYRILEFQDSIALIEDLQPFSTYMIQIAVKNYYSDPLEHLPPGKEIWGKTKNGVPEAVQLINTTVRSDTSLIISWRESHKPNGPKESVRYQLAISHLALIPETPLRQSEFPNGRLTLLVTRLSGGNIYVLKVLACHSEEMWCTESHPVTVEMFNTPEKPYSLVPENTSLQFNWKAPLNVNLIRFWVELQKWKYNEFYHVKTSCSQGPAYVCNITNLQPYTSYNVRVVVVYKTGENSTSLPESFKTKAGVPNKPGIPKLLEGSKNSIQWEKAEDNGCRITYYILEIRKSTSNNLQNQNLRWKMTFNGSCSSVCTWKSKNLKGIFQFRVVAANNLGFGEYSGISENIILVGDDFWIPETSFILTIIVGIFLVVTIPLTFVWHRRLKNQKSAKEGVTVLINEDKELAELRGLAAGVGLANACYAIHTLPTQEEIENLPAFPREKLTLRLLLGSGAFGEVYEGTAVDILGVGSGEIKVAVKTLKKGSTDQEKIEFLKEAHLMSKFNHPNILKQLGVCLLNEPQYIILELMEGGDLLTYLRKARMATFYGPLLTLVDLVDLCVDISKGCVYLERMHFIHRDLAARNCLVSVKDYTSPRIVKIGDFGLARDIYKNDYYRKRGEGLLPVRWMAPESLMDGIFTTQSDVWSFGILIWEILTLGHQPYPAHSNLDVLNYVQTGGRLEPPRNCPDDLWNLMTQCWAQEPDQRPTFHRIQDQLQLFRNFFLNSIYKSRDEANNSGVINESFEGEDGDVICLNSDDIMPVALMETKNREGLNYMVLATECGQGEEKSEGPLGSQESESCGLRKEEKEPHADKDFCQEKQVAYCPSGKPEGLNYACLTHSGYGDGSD
T3 sequence (P04629 33-796 G595R): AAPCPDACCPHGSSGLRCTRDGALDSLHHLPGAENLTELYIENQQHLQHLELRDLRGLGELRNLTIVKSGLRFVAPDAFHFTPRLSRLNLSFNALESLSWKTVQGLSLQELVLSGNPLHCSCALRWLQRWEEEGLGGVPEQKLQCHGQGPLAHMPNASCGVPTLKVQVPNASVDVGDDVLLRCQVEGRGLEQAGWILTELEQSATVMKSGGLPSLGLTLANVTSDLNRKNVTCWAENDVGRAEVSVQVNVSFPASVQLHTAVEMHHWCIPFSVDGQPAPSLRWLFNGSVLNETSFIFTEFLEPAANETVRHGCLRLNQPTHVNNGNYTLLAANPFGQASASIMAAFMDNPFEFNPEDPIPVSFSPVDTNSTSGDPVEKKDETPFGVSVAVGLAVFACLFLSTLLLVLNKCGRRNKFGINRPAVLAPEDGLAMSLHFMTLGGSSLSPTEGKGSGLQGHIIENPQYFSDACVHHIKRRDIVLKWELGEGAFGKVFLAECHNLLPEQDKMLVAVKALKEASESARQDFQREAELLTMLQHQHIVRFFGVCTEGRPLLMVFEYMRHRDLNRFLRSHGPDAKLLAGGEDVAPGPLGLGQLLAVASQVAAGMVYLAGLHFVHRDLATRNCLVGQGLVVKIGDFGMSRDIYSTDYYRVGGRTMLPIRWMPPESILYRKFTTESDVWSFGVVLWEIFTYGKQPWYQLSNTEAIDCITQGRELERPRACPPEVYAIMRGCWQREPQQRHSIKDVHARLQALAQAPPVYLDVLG
T4 sequence (P04629 33-796 G667C): as the sequence (P04629 33-796 G595R) above, with R563G, G635C counted along it
T5 sequence (Q16288 32-839): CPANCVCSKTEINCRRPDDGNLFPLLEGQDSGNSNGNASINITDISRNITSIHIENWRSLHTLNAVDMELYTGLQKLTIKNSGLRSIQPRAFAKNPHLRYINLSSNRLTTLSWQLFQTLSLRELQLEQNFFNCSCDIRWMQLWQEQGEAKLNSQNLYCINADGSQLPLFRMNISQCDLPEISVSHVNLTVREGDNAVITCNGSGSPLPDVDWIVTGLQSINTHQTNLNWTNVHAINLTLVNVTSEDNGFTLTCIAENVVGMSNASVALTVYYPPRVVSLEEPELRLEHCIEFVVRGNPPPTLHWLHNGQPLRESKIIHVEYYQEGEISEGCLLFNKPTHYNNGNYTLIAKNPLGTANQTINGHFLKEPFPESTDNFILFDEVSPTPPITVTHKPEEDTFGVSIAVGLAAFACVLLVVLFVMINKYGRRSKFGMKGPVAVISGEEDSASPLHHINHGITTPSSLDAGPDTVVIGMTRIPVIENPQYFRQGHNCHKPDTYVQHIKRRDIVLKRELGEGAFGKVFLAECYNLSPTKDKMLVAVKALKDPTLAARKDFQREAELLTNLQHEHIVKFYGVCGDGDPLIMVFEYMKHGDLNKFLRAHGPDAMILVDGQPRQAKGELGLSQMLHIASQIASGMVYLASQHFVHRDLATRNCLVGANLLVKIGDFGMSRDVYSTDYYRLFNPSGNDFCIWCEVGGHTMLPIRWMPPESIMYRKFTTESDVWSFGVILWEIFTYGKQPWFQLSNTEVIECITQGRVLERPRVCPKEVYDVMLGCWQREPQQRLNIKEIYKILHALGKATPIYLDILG
T2 sequence (P04629 33-796): as the sequence (P04629 33-796 G595R) above, with R563G counted along it
T9 sequence (Q16288 whole entry G623R, the tested form may be a part): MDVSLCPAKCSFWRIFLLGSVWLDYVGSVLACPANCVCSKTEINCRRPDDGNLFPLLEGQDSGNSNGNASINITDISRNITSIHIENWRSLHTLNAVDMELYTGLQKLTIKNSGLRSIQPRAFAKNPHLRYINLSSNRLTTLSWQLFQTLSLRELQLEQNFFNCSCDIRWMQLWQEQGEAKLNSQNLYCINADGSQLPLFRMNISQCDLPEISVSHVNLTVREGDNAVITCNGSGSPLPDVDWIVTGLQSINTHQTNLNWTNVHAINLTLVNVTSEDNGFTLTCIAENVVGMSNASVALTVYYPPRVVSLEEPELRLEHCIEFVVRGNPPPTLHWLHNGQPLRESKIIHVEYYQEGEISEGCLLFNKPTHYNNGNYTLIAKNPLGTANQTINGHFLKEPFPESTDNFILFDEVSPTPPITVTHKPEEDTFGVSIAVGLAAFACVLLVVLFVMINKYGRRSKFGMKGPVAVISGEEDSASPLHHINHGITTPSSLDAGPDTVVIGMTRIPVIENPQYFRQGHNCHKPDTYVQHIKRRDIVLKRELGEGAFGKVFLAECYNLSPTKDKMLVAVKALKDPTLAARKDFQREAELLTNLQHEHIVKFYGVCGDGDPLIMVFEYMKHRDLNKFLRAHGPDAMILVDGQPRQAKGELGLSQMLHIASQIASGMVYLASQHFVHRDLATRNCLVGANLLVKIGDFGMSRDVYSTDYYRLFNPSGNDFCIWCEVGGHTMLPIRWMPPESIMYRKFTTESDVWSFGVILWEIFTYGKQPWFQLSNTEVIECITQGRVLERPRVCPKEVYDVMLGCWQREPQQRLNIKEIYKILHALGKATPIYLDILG

Compound: O=C1NC2(COC2)COc2ncc(F)cc2[C@H]2CCON2c2ccn3ncc1c3n2 [WX006A]
IC50 (Ros1): 0.59 nM
IC50 (TrkA): 9.84 nM
IC50 (TrkA-G595R): 4.74 nM
IC50 (TrkA-G667C): 37.5 nM
IC50 (TrkC): 0.16 nM
IC50 (ALK): 79.2 nM
GI50 [1]: 23.5 nM
GI50 [2]: 19.4 nM
GI50 [3]: 5.4 nM
Apparent clearance Cl ([4]; IV dose of 3 mg/kg): 19.9 mL/min/kg
Vd [4, 7]: 1.01 L/kg
AUC(0-t) [4, 7]: 6.1 µM·h
half-life [4, 7]: 33.6 min
bioavailability [4, 8]: 72%
AUC(0-t) [4, 9]: 14.4 µM·h
Cmax [4, 9]: 8.78 µM
Tmax [4, 9]: 15 min

Compound: C[C@H]1CNC(=O)c2cnn3ccc(nc23)N[C@H](C)c2cc(F)ccc2O1 [TPX-0005, reference compound]
Apparent clearance Cl [5]: 16.5 mL/min/kg
drug concentration in cerebrospinal fluid at 0.5 hour CSF@0.5 h ([5]; PO @ 3 mpk, CSF): 8 nmol/kg
drug concentration in brain at 0.5 h Brain@0.5 h ([5]; PO @ 3 mpk): 50 nmol/kg
drug concentration in brain at 2 h Brain@2 h ([5]; PO @ 3 mpk, 2 h): 41 nmol/kg
T/C ([6]; dose of 3 mg/kg): 16.80%
TGI ([6]; dose of 3 mg/kg): 87.46%

Now from value to compound, other results behind:

Apparent clearance Cl [5]: 22.7 mL/min/kg
drug concentration in cerebrospinal fluid at 0.5 hour CSF@0.5 h ([5]; PO @ 3 mpk, CSF): 15 nmol/kg
drug concentration in cerebrospinal fluid at 2 hour CSF@2 h ([5]; PO @ 3 mpk, CSF, 2 h): 3 nmol/kg
drug concentration in brain at 0.5 h Brain@0.5 h ([5]; PO @ 3 mpk): 40 nmol/kg
drug concentration in brain at 2 h Brain@2 h ([5]; PO @ 3 mpk, 2 h): 20 nmol/kg
Area under the curve AUC0-last ([4]; PO dose of 10 mL/kg): 2.89 µM·h
Time of peak concentration Tmax ([4]; PO dose of 10 mL/kg): 22.8 min
Cmax ([4]; PO dose of 10 mL/kg): 1.55 µM
Compound: O=C(Nc1cnn2ccc(N3CCC[C@@H]3c3cc(F)ccc3F)nc12)N1CC[C@H](O)C1 [LOXO-101, Larotrectinib, reference compound]
T/C ([6]; high-dose group 60 mg/kg): 34.20%
TGI ([6]; high-dose group 60 mg/kg): 69.73%

IC50 (Ros1): 0.82 nM
IC50 (TrkA): 13.4 nM
IC50 (TrkA-G595R): 37.1 nM
IC50 (TrkA-G667C): 26.3 nM
IC50 (TrkC): 0.3 nM
IC50 (ALK): 119 nM
Apparent clearance Cl ([4]; IV dose of 3 mg/kg): 17.8 mL/min/kg
Vd [4, 7]: 0.74 L/kg
AUC(0-t) [4, 7]: 7.34 µM·h
half-life [4, 7]: 42.6 min
bioavailability [4, 8]: 111%
AUC(0-t) [4, 9]: 26.7 µM·h
Cmax [4, 9]: 10.8 µM
Tmax [4, 9]: 37.8 min
Compound: C[C@@H]1COc2ccc(F)cc2[C@H]2CCON2c2ccn3ncc(c3n2)C(=O)N1 [WX017A]

IC50 (Ros1): 0.15 nM
IC50 (TrkA): 2.66 nM
IC50 (TrkA-G595R): 3.59 nM
IC50 (TrkA-G667C): 3.04 nM
IC50 (TrkC): 0.06 nM
IC50 (ALK): 28.1 nM
GI50 [1]: 4.08 nM
GI50 [2]: 27.9 nM
GI50 [3]: 0.9 nM
Apparent clearance Cl ([4]; IV dose of 3 mg/kg): 10.8 mL/min/kg
Apparent volume of distribution Vd ([4]; IV dose of 3 mg/kg): 0.81 L/kg
Area under the curve AUC0-last ([4]; IV dose of 3 mg/kg): 12.216 µM·h
Half life T1/2 ([4]; IV dose of 3 mg/kg): 42 min
Area under the curve AUC0-last ([4]; PO dose of 10 mL/kg): 27.967 µM·h
Time of peak concentration Tmax ([4]; PO dose of 10 mL/kg): 22.8 min
Bioavailability F % ([4]; PO dose of 10 mL/kg vs IV 3 mg/kg): 69%
Cmax ([4]; PO dose of 10 mL/kg): 7.36 µM
Compound: O=C1NC2(CC2)COc2ccc(F)cc2[C@H]2CCON2c2ccn3ncc1c3n2 (single isomer, unassigned) [WX003A]
